Patent US12723063B2, “GIPR-agonist compounds” (Eli Lilly and Company, priority 2019, dated 2026)
*1 amine or outer side, *2 acyl side, *3 side chain or, on linkers, in order; H or OH if unused. Where a SMILES comes first, the peptide text is derived from it. Side-chain parts run from the residue outwards. [ ]: non-standard residue; d: D form. The star is where a group is joined. C20 diacid = O=C(O)CCCCCCCCCCCCCCCCCCC(=O)*; αMePhe(2-F) = C[C@](N)(Cc1ccccc1F)C(=O)O; γGlu = O=C(O)[C@H](CCC(=O)[*:2])N[*:1]; αMeF = C[C@](N)(Cc1ccccc1)C(=O)O; αMeL = CC(C)C[C@](C)(N)C(=O)O; Orn = NCCC[C@H](N)C(=O)O; AEEA = NCCOCCOCC(=O)O; Aib = CC(C)(N)C(=O)O

Target: T1, human GcgR (Homo sapiens, UniProt P47871)
T1 construct: expressed in transfected cells; crude membranes
T1 sequence (P47871 26-477): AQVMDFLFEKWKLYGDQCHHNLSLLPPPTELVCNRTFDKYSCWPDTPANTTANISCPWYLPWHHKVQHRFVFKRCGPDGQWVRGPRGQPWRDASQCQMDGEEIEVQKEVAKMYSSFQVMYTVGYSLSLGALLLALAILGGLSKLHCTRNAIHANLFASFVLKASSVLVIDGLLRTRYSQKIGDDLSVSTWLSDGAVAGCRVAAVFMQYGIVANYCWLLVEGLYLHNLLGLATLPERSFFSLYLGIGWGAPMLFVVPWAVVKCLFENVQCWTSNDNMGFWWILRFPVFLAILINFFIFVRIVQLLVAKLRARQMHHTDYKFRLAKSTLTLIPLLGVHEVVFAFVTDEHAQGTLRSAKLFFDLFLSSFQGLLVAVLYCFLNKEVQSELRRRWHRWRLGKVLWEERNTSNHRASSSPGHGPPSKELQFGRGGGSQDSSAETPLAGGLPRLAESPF
Assay: [125I]-Glucagon binding, SPA with WGA beads, 0.1% bacitracin
Conditions: geometric mean, read-out: hGcgR Ki
Description: Stably transfected cell lines are prepared by subcloning receptor cDNA into a pcDNA3 expression plasmid and transfected into human embryonic kidney (HEK) 293 (hGcgR and hGLP-1R) or Chinese Hamster Ovary (CHO) (hGIPR) cells followed by selection with Geneticin (hGLP-1R and hGIPR) or hygromycin B (hGcgR).
Two methods are used for the preparation of crude cell membranes.
Method 1: Frozen cell pellets are lysed on ice in hypotonic buffer containing 50 mM Tris HCl, pH 7.5, and Roche Complete™ Protease Inhibitors with EDTA. The cell suspension is disrupted using a glass Potter-Elvehjem homogenizer fitted with a Teflon® pestle for 25 strokes. The homogenate is centrifuged at 4° C. at 1100× g for 10 minutes. The supernatant is collected and stored on ice while the pellets are resuspended in homogenization buffer and rehomogenized as described above. The homogenate is centrifuged at 1100× g for 10 minutes. The second supernatant is combined with the first supernatant and centrifuged at 35000× g for 1 hour at 4° C. The resulting membrane pellet is resuspended in homogenization buffer containing protease inhibitors at approximately 1 to 3 mg/mL, quick frozen in liquid nitrogen and stored as aliquots in a −80° C. freezer until use.
Method 2: Frozen cell pellets are lysed on ice in hypotonic buffer containing 50 mM Tris HCl, pH 7.5, 1 mM MgCl2, Roche Complete™ EDTA-free Protease Inhibitors and 25 units/mL DNAse I (Invitrogen). The cell suspension is disrupted using a glass Potter-Elvehjem homogenizer fitted with a Teflon® pestle for 20 to 25 strokes. The homogenate is centrifuged at 4° C. at 1800× g for 15 minutes. The supernatant is collected and stored on ice while the pellets are resuspended in homogenization buffer (without DNAse I) and rehomogenized as described above. The homogenate is centrifuged at 1800× g for 15 minutes. The second supernatant is combined with the first supernatant and centrifuged an additional time at 1800× g for 15 minutes. The overall supernatant is then centrifuged at 25000× g for 30 minutes at 4° C. The resulting membrane pellet is resuspended in homogenization buffer (without DNAse I) containing protease inhibitors at approximately 1 to 3 mg/mL and stored as aliquots in a −80° C. freezer until use.
The human Geg receptor binding assays are performed using a Scintillation Proximity Assay (SPA) format with wheat germ agglutinin (WGA) beads (Perkin Elmer). The binding buffer contains 25 mM 4-(2-hydroxyethyl)-1-piperazineethanesulfonic acid (HEPES), pH 7.4, 2.5 mM CaCl2), 1 mM MgCl2, 0.1% (w/v) bacitracin (Research Products), 0.003% (w/v) Polyoxyethylenesorbitan monolaurate (TWEEN®-20), and Roche Complete™ Protease Inhibitors without EDTA. Peptides and Gcg are thawed and 3-fold serially diluted in 100% DMSO (10 point concentration response curves). Next, 5 μL serially diluted compound or DMSO is transferred into Corning® 3632 clear bottom assay plates containing 45 μL assay binding buffer or unlabeled Gcg control (non-specific binding or NSB, at 1 μM final). […] Plates are sealed and mixed on a plate shaker (setting 6) for 1 minute and read with a PerkinElmer Trilux MicroBeta® scintillation counter after 12 hours of incubation/settling time at room temperature.
Data are analyzed using four-parameter (curve maximum, curve minimum, IC50, Hill slope) nonlinear regression routines (Genedata Screener, version 12.0.4, Genedata AG, Basal, Switzerland). […] Values for Ki are reported as the geometric mean, with error expressed as the standard error of the mean (SEM) and n is equal to the number of independent replicates (determined in assays performed on different days). […] SEM is only calculated when […] or greater. Means are expressed as geometric means with the standard error of the mean (SEM) and the number of replicates (n) indicated in parentheses.

CC[C@H](C)[C@H](NC(=O)[C@H](CCCN)NC(=O)[C@H](CC(=O)O)NC(=O)[C@H](CC(C)C)NC(=O)[C@](C)(CC(C)C)NC(=O)[C@@H](NC(=O)[C@H](CO)NC(=O)[C@H](Cc1ccc(O)cc1)NC(=O)[C@H](CC(=O)O)NC(=O)[C@H](CO)NC(=O)[C@@H](NC(=O)[C@H](Cc1ccccc1)NC(=O)[C@@H](NC(=O)CNC(=O)[C@H](CCC(=O)O)NC(=O)C(C)(C)NC(=O)[C@@H](N)Cc1ccc(O)cc1)[C@@H](C)O)[C@@H](C)CC)[C@@H](C)CC)C(=O)N[C@@H](Cc1c[nH]cn1)C(=O)N[C@@H](CCC(N)=O)C(=O)NC(C)(C)C(=O)N[C@@H](CCC(=O)O)C(=O)N[C@@H](Cc1ccccc1)C(=O)N[C@H](C(=O)N[C@@H](CCC(=O)O)C(=O)N[C@@H](Cc1ccc(O)cc1)C(=O)N[C@@H](CCCCNC(=O)COCCOCCNC(=O)COCCOCCNC(=O)CC[C@H](NC(=O)CCCCCCCCCCCCCCCCCCC(=O)O)C(=O)O)C(=O)N[C@@H](CC(C)C)C(=O)N[C@@H](CCC(=O)O)C(=O)NCC(=O)NCC(=O)N1CCC[C@H]1C(=O)N[C@@H](CO)C(=O)N[C@@H](CO)C(=O)NCC(=O)N[C@@H](C)C(=O)N1CCC[C@H]1C(=O)N1CCC[C@H]1C(=O)N1CCC[C@H]1C(=O)N[C@@H](CO)C(N)=O)C(C)C [Example 107] (H-Y[Aib]EGTFISDYSI[αMeL]LD[Orn]IHQ[Aib]EFVEYK([AEEA-AEEA-γGlu-C20 diacid])LEGGPSSGAPPPS-NH2)
Ki: 347 nM

CC[C@H](C)[C@H](NC(=O)[C@H](CO)NC(=O)[C@H](Cc1ccc(O)cc1)NC(=O)[C@H](CC(=O)O)NC(=O)[C@H](CO)NC(=O)[C@@H](NC(=O)[C@](C)(Cc1ccccc1)NC(=O)[C@@H](NC(=O)CNC(=O)[C@H](CCC(=O)O)NC(=O)C(C)(C)NC(=O)[C@@H](N)Cc1ccc(O)cc1)[C@@H](C)O)[C@@H](C)CC)C(=O)N[C@@H](C)C(=O)N[C@@H](CC(C)C)C(=O)N[C@@H](CC(=O)O)C(=O)N[C@@H](CCCCN)C(=O)N[C@@H](CCCCNC(=O)COCCOCCNC(=O)COCCOCCNC(=O)CC[C@H](NC(=O)CCCCCCCCCCCCCCCCCCC(=O)O)C(=O)O)C(=O)N[C@@H](Cc1c[nH]cn1)C(=O)N[C@@H](CCC(N)=O)C(=O)NC(C)(C)C(=O)N[C@@H](CCC(=O)O)C(=O)N[C@@H](Cc1ccccc1)C(=O)N[C@H](C(=O)N[C@@H](CC(N)=O)C(=O)N[C@@H](Cc1c[nH]c2ccccc12)C(=O)N[C@@H](CC(C)C)C(=O)N[C@@H](CC(C)C)C(=O)N[C@@H](C)C(=O)NCC(=O)NCC(=O)N1CCC[C@H]1C(=O)N[C@@H](CO)C(=O)N[C@@H](CO)C(=O)NCC(=O)N[C@@H](C)C(=O)N1CCC[C@H]1C(=O)N1CCC[C@H]1C(=O)N1CCC[C@H]1C(=O)N[C@@H](CO)C(N)=O)C(C)C [Example 25] (H-Y[Aib]EGT[αMeF]ISDYSIALDKK([AEEA-AEEA-γGlu-C20 diacid])HQ[Aib]EFVNWLLAGGPSSGAPPPS-NH2)
Ki: 101 nM

CC[C@H](C)[C@H](NC(=O)[C@H](CO)NC(=O)[C@H](Cc1ccc(O)cc1)NC(=O)[C@H](CC(=O)O)NC(=O)[C@H](CO)NC(=O)[C@@H](NC(=O)[C@](C)(Cc1ccccc1F)NC(=O)[C@@H](NC(=O)CNC(=O)[C@H](CCC(=O)O)NC(=O)C(C)(C)NC(=O)[C@@H](N)Cc1ccc(O)cc1)[C@@H](C)O)[C@@H](C)CC)C(=O)N[C@@H](C)C(=O)N[C@@H](CC(C)C)C(=O)N[C@@H](CC(=O)O)C(=O)N[C@@H](CCCCN)C(=O)N[C@H](C(=O)N[C@@H](Cc1c[nH]cn1)C(=O)N[C@@H](CCC(N)=O)C(=O)NC(C)(C)C(=O)N[C@@H](CC(=O)O)C(=O)N[C@@H](Cc1ccccc1)C(=O)N[C@H](C(=O)N[C@@H](CCC(=O)O)C(=O)N[C@@H](Cc1ccc(O)cc1)C(=O)N[C@@H](CCCCNC(=O)COCCOCCNC(=O)COCCOCCNC(=O)CC[C@H](NC(=O)CCCCCCCCCCCCCCCCCCC(=O)O)C(=O)O)C(=O)N[C@@H](CC(C)C)C(=O)N[C@@H](CCC(=O)O)C(=O)NCC(=O)NCC(=O)N1CCC[C@H]1C(=O)N[C@@H](CO)C(=O)N[C@@H](CO)C(=O)NCC(=O)N[C@@H](C)C(=O)N1CCC[C@H]1C(=O)N1CCC[C@H]1C(=O)N1CCC[C@H]1C(=O)N[C@@H](CO)C(N)=O)C(C)C)[C@@H](C)CC [Example 99] (H-Y[Aib]EGT[αMePhe(2-F)]ISDYSIALDKIHQ[Aib]DFVEYK([AEEA-AEEA-γGlu-C20 diacid])LEGGPSSGAPPPS-NH2)
Ki: 174 nM
